For data set [1] the following is noted: water at 0° C.; cited from earlier work.
Data set [2] has as its system islets transplanted under the kidney capsule of diabetic syngeneic recipients. Nature of the data set: Syngeneic marginal mass islet transplantation, time to normoglycemia. Type of data set: in vivo, C57BL/6 mice. To be noted: 250 islets pre-incubated two hours in medium pre-saturated with 1% CO. As for the experimental part:
Cells and islets were exposed to 1% carbon monoxide in compressed air balanced with 5% CO2, as described elsewhere (see, e.g., Otterbein et al., Nature Med. 6:422–428, 2000). Islets were incubated in RPMI medium pre-saturated with carbon monoxide (4° C. overnight, 1% CO, 5% CO2) for two hours at 37° C. while treatment with 1% CO, 5% CO2 was continued.
Male C57BL/6 were purchased from Charles River Laboratories (Wilmington, Mass.) and housed in accordance with guidelines from the NIH. The experiments were approved by the Institutional Animal Care and Use Committee (IACUC). Recipient mice (8 weeks old) were rendered diabetic by a single intraperitoneal injection (220 mg/kg) of StreptozotocinO (Sigma) dissolved in citrate buffer. Mice received transplants if 2 consecutive non-fasting blood glucose levels of greater than 350 mg/dl were obtained from a whole blood sample.
250 islets 150–250 îm in diameter were hand-picked using a dissecting microscope. Islets were transplanted under the kidney capsule as described previously (Kaufman et al., J. Exp. Med. 172:291–302, 1990). […]
Whether carbon monoxide pre-incubation of islet grafts prior to transplantation results in better functional performance in vivo was investigated (FIGS. 6A–B). […] After transplantation, blood glucose levels were determined on a daily basis. […]

Data set [3] has as its system Brown Norway aortas transplanted into Lewis rats. The data set is described as follows: Aortic transplant model (transplant-associated arteriosclerosis). The data set is classed as in vivo, rat. As to conditions: allogeneic recipients exposed to CO 250 ppm for 56 days. As for the experimental part: Aortic transplantation was carried out done as described elsewhere (Plissonnier et al., Transplantation 60:414–424, 1995). […] After additional left thoracotomy, three or four pairs of the inter-costal arteries were ligated using 7-0 nylon suture (Keisei Medical Industrial Co., LTD, Tokyo, Japan), and 2 cm of the descending aorta was harvested. The graft was inserted between the renal arteries and the aortic bifurcation by standard microsurgery technique using 9-0 Nylon sutures (Ethilon™, Ethicon, Inc, Somerville, N.J.). The native abdominal aorta was left after both edges were ligated.
CO at a concentration of 1% (10,000 parts per million; ppm) in compressed air was mixed with balanced air (21% oxygen) as described previously (Otterbein et al., Am J Physiol 276(4 Pt 1):L688–L694, 1999). For the transplant model, graft donors were placed in the CO chamber two days before transplantation. Recipients were placed in the chamber immediately following transplantation and kept there 56 days. CO concentration was maintained at 250 ppm at all times.
Adult male (250–350 g) Brown Norway rats (RT1 were used as aortic graft donors and adult male (250–350 g) Lewis rats (RT1) as recipients (Charles River Lab. Wilmington, Mass.). Male C57BL/6, p21^−/− and p53^−/− null mice were purchased from Jackson Laboratory (Bar Harbor, Me.). The MKK3^(−/−) null mice were generated as previously described (Lu et al., EMBO. J. 18:1845–1857, 1999). Mice were allowed to acclimate for one week with rodent chow and water ad libitum.
Brown Norway aortas were transplanted into Brown Norway rats (syngeneic), untreated Lewis rats (allogeneic), or Lewis rats exposed to carbon monoxide (250 ppm; allogeneic with carbon monoxide). Samples were harvested 56 days after transplantation and stained by a modified elastic tissue-masson trichrome, or by eosin hematoxylin. Brown Norway aortic segments transplanted into Lewis rats developed arteriosclerotic lesions that are consistent with those associated with chronic graft rejection (data not shown). […]

Data set [4] has as its system rat platelets overlaid on mouse 2F–2B endothelial cells. The data set is described as follows: Platelet aggregation assay, platelets overlaid on pretreated endothelial cells. Type of data set: cell-based. As to conditions: endothelial cells pretreated with protoporphyrin 50 μM; ADP 2 μM. As for the experimental part:
Mouse 2F–2B endothelial cells were cultured on 0.2% gelatin (Sigma) coated six-well plates in 88% DMEM (Life Technologies), 10% FCS (FCS), 100 U/ml penicillin, and 100 îg/ml streptomycin (Life Technologies). Confluent endothelial cells either were left untreated or were treated with the HO-inducing agent CoPPIX (50 îM; 18 h), the HO inhibitor SnPPIX (50 îM, 18 h), or both CoPPIX (50 îM, 15 h) and SnPPIX (50 îM, 3 h). Platelet-rich plasma was obtained by centrifugation (290-g, 12 min, 19° C.) of normal rat […] in 3.8% sodium citrate. Rat platelets (3–10^8 cells ml) were resuspended in HT buffer (8.9 mM NaHCO3, 0.8 mM KH2PO, 5.6 mM dextrose, 2.8 mM KCl solution, 0.8 mM MgCl2, 129 mM NaCl, 10 mM HEPES). Platelets were overlaid (5 min; 37° C.) on mouse endothelial cells, and platelet aggregation assays were conducted as described before (Kaczmarek et al, J. Biol. Chem. 271:33116, 1996) by using an aggregometer (Chrono-Log, Harestown, Pa.) and ADP (0.5–4 μM) as an agonist.

Data on two compounds can be found in patent US7238469B2, “Carbon monoxide improves outcomes in tissue and organ transplants and suppresses apoptosis” (priority 2001, dated 2007).

`[C-]#[O+]` [CO, carbon monoxide]: the saturation point entry in data set [1] is “about 0.0044 g CO/100 g medium”. Further, the “time needed to reach normoglycemia (median)” value in data set [2] is 7 days. In data set [3], the “accumulation of leukocytes into the adventitia” value was “inhibited”, the “intimal hyperplasia in aortic grafts” value was “inhibited” and the “loss of medial SMC” value is on record as “no significant effect on loss of medial SMC”.
Regarding `C=Cc1c2[n-]c(c1C)/C=c1\[n-]/c(c(C)c1C=C)=C\c1[n-]c(c(CCC(=O)O)c1C)C=c1[n-]/c(c(C)c1CCC(=O)O)=C\2.[Sn+4]` [SnPPIX, tin protoporphyrin IX], the “platelet aggregation on stimulation by ADP” value in data set [4] is listed as “platelet aggregation was enhanced”.
